Reference: ChEMBL document CHEMBL4732213, “Discovery of novel ceramide analogs with favorable pharmacokinetic properties and combination with AKT inhibitor against colon cancer” (Eur J Med Chem, 2021)
Activity calls are given as the source filed them. The rule behind the calls is not given here.

Experiments:
[1] = tested on: HT-29; test: Antiproliferative activity against human HT-29 cells measured after 72 hrs by sulforhodamine B assay; type: functional, cell-based; details: HT-29, 72 h
[2] = AUC(0 to t) in BALB/c mouse at 10 mg/kg, iv; type: ADME, organism-based; set-up: dose 10 mg/kg; details: in vivo
[3] = AUC(0 to infinity) in BALB/c mouse at 50 mg/kg, ip; type: ADME, organism-based; set-up: time infinity, route intraperitoneal, dose 50 mg/kg; details: in vivo
[4] = AUC(0 to infinity) in BALB/c mouse at 10 mg/kg, iv; type: ADME, organism-based; set-up: route intravenous, time infinity, dose 10 mg/kg; details: in vivo
[5] = AUC(0 to t) in BALB/c mouse at 50 mg/kg, ip; type: ADME, organism-based; set-up: dose 50 mg/kg; details: in vivo
[6] = Half life in BALB/c mouse at 50 mg/kg, ip; type: ADME, organism-based; details: in vivo
[7] = Tmax in BALB/c mouse at 50 mg/kg, ip; type: ADME, organism-based; details: in vivo
[8] = Cmax in BALB/c mouse at 50 mg/kg, ip; type: ADME, organism-based; set-up: route intraperitoneal, dose 50 mg/kg; details: in vivo
[9] = Half life in BALB/c mouse at 10 mg/kg, iv; type: ADME, organism-based; details: in vivo
[10] = tested on: HT-29; test: Down regulation of p-RB expression in human HT29 cells at 10 uM incubated for 24 hrs by Western blotting analysis; type: functional, cell-based
[11] = tested on: HT-29; test: Induction of apoptosis in human HT29 cells at 7.5 uM after 48 hrs by Annexin-V-FITC/PI staining based flow cytometric analysis; type: functional, cell-based
[12] = tested on: HT-29; test: Upregulation of p21 protein expression in human HT29 cells at 10 uM incubated for 24 hrs by Western blotting analysis; type: functional, cell-based
[13] = tested on: HT-29; test: Induction of apoptosis in human HT29 cells assessed as inhibition of AKT phosphorylation at 10 uM after 48 hrs by Western blotting analysis; type: functional, cell-based
[14] = tested on: HT-29; test: Antitumor activity against human HT-29 cells xenografted in BALB/c nude mouse assessed as tumor growth inhibition at 50 mg/kg, po Q2D measured every 3 days by electronic caliper method; type: functional; details: HT-29, po, 72 h, time 3 day, read-out: TGI
[15] = tested on: HT-29; test: Downregulation of c-Myc protein expression level in human HT29 cells at 10 uM incubated for 24 hrs by Western blotting analysis; type: functional, cell-based
[16] = Toxicity in BALB/c nude mouse xenografted with human HT-29 cells assessed as effect on body weight at 50 mg/kg, po measured every 3 day by electronic caliper method; type: organism-based; details: in vivo, 72 h
[17] = tested on: HT-29; test: Induction of cell cycle arrest in human HT29 cells assessed as accumulation at G0/G1 phase at 10 uM after 24 hrs by PI staining based flow cytometry analysis; type: functional
[18] = tested on: HT-29; test: Induction of ROS generation in human HT29 cells at 10 uM after 16 hrs by flow cytometric analysis; type: functional, cell-based

Compound | IC50 [1] | further results
CCCCCCCOc1ccc(CCC(CO)(CO)NC(=O)CCCCCCC)c2ccccc12 | 18.8 µM | 
CC(=O)NC(CO)(CO)CCc1ccc(O)c2ccccc12 | > 80 µM | 
C/C=C/C(=O)NC(CO)(CO)CCc1ccc(OCCCCCCC)c2ccccc12 | 36.4 µM | 
CCCCCCCCc1ccc(CCC(CO)(CO)NC(=O)C(C)CC)c2ccccc12 (configuration not stated) | 25.6 µM | 
CCCCCCCOc1ccc(CCC(CO)(CO)NC(=O)OC(C)(C)C)c2ccccc12 | 21.4 µM | 
COc1ccc(CCC(CO)(CO)NC(C)=O)c2ccccc12 | > 80 µM | 
CCCCCCCCc1ccc(CCC(CO)(CO)NC(C)=O)c2ccccc12 | 36.5 µM | 
CCCCCCCCCCCCC/C=C/[C@@H](O)[C@H](CO)NC(C)=O | 25.9 µM | AUC(0-t) [2]: 1620 ng·h/mL; AUC(0-inf) [3]: 4090 ng·h/mL; AUC(0-inf) [4]: 1630 ng·h/mL; AUC(0-t) [5]: 4060 ng·h/mL; half-life [6]: 3.99 h; Tmax [7]: 0.417 h; Cmax [8]: 2740 ng/mL; half-life [9]: 5.08 h
CCCCCCCCCC(=O)NC(CO)(CO)CCc1ccc(CCCCCCCC)c2ccccc12 | > 80 µM | 
CCCCCCCCc1ccc(CCC(CO)(CO)NC(=O)CCCCCCC)c2ccccc12 | 22 µM | 
CCCCc1ccc(Oc2ccc(CCC(CO)(CO)NC(C)=O)c3ccccc23)cc1 | > 80 µM | 
CCCCCCCOc1ccc(CCC(CO)(CO)NC(=O)CCCCC)c2ccccc12 | 21.9 µM | 
CCCCCCCCc1ccc(CCC(CO)(CO)NC(=O)c2ccccc2)c2ccccc12 | 23 µM | 
CCCCCCCOc1ccc(CCC(CO)(CO)NC(=O)OCc2ccccc2)c2ccccc12 | 60.5 µM | 
NC1(c2ccc(-c3nc4ccn5c(=O)[nH]nc5c4cc3-c3ccccc3)cc2)CCC1 [MK-2206] |  | Activity [10]: inactive; Activity [11]: inactive; Activity [12]: inactive; Activity [13]: Active; inhibition in vivo at 50 mg/kg [14]: 30.9%; Activity [15]: inactive; Activity [16]: Non-Toxic; Activity [17]: Active; Activity [18]: Active
CCCCCCCCc1ccc(CCC(CO)(CO)NC(=O)CCCCC)c2ccccc12 | 20.3 µM | 
CCCCCCCCCCCCCC(=O)NC(CO)(CO)CCc1ccc(CCCCCCCC)c2ccccc12 | > 80 µM | 
CCCCc1ccc(COc2ccc(CCC(CO)(CO)NC(C)=O)c3ccccc23)cc1 | 27.1 µM | 
CCCCCCCCc1ccc(CCC(CO)(CO)NC(=O)CCC)c2ccccc12 | 26.4 µM | 
CCCCCCCCc1ccc(C(O)CC(CO)(CO)NC(C)=O)c2ccccc12 (configuration not stated) | 77.9 µM | 
CCCCCCCOc1ccc(CCC(CO)(CO)NC(=O)OCCCC)c2ccccc12 | 22.4 µM | 
